Columns and labels:
Details in all cases: Homo sapiens
[1] = system: RPMI-8226; assay: In vitro inhibitory activity against […] cancer cell lines; type: functional
[2] = system: NCI-H23; assay: In vitro inhibitory activity against NIC-H23 lung cancer cell lines
[3] = system: MCF7; assay: In vitro inhibitory activity against MCF-7 breast cancer cell lines; type: functional
[4] = system: CAKI-1; assay: In vitro inhibitory activity against CAKI-1 […] cancer cell lines; type: functional
[5] = system: SK-MEL-5; assay: In vitro inhibitory activity against SK-MEL-5 melanoma cancer cell lines; type: functional
[6] = system: HL-60; assay: In vitro inhibitory activity against HL-60 cancer cell lines; type: functional
[7] = system: HCT-15; assay: In vitro inhibitory activity against HCT-15 colon cancer cell lines; type: functional
[8] = system: SR; assay: In vitro inhibitory activity against SR cancer cell lines; type: functional
[9] = system: MDA-N; assay: In vitro inhibitory activity against MDA-N breast cancer cell lines; type: functional
[10] = system: HT-29; assay: In vitro inhibitory activity against HT-29 colon cancer cell lines; type: functional
[11] = system: MOLT-4; assay: In vitro inhibitory activity against MOLT-4 cancer cell lines; type: functional
[12] = system: OVCAR-5; assay: In vitro inhibitory activity against OVCAR-5 ovarian cancer cell lines; type: functional
[13] = system: UO-31; assay: In vitro inhibitory activity against UO-31 renal cancer cell lines; type: functional
[14] = system: SF-295; assay: In vitro inhibitory activity against SF-295 […] cancer cell lines; type: functional
[15] = system: MDA-MB-435; assay: In vitro inhibitory activity against MDA-MB-435 breast cancer cell lines; type: functional
[16] = system: A498; assay: In vitro inhibitory activity against A-498 […] cancer cell lines; type: functional
[17] = system: K562; assay: In vitro inhibitory activity against K-562 cancer cell lines; type: functional

## COc1cc(OC)c2[nH]c3c(O)c(-c4c(C)cc5c([nH]c6c(OC)cc(OC)cc65)c4O)c(C)cc3c2c1
[1]
  GI50: 10.5 µM
[2]
  GI50: 8.2 µM
[3]
  GI50: 8.68 µM
[4]
  GI50: 9.89 µM
[5]
  GI50: 8.38 µM
[6]
  GI50: 2.82 µM
[7]
  GI50: 8.28 µM
[8]
  GI50: 9.01 µM
[9]
  GI50: 8.83 µM
[10]
  GI50: 8.03 µM
[11]
  GI50: 8.59 µM
[12]
  GI50: 9.03 µM
[13]
  GI50: 6.84 µM
[14]
  GI50: 10.2 µM
[15]
  GI50: 12 µM
[16]
  GI50: 7.82 µM
[17]
  GI50: 9.7 µM

## COc1ccc2[nH]c3c(O)c(-c4c(C)cc5c([nH]c6ccc(OC)cc65)c4O)c(C)cc3c2c1
[1]
  GI50: 3.61 µM
[2]
  GI50: 4.48 µM
[3]
  GI50: 4.49 µM
[4]
  GI50: 4.27 µM
[5]
  GI50: 4.34 µM
[6]
  GI50: 0.0321 µM
[7]
  GI50: 4.2 µM
[8]
  GI50: 3.97 µM
[9]
  GI50: 4.5 µM
[10]
  GI50: 3.71 µM
[11]
  GI50: 3.23 µM
[12]
  GI50: 3.82 µM
[13]
  GI50: 3.78 µM
[14]
  GI50: 5.11 µM
[15]
  GI50: 4.34 µM
[16]
  GI50: 4.78 µM
[17]
  GI50: 4.04 µM

## Cc1cc2c([nH]c3ccccc32)c(O)c1-c1c(C)cc2c([nH]c3ccccc32)c1O
[1]
  GI50: 3.85 µM
[2]
  GI50: 12.4 µM
[3]
  GI50: 11.2 µM
[4]
  GI50: 14.7 µM
[5]
  GI50: 16.5 µM
[6]
  GI50: 32.9 µM
[7]
  GI50: 10.1 µM
[8]
  GI50: 3.16 µM
[9]
  GI50: 14.7 µM
[10]
  GI50: 6.04 µM
[11]
  GI50: 3.62 µM
[12]
  GI50: 15 µM
[13]
  GI50: 13 µM
[14]
  GI50: 17.4 µM
[15]
  GI50: 15 µM
[16]
  GI50: 15.9 µM
[17]
  GI50: 12.3 µM

From ChEMBL document CHEMBL1132869, “The first synthesis of clausenamine-A and cytotoxic activities of three biscarbazole analogues against cancer cells” (2000)
